In patent publication US8852869B2, “Method of determining functional deficiencies in the complement system” (Immunobond ApS, priority 2007, dated 2014):

System: alternative complement pathway (AP)
Assay: Functional capacity of the alternative pathway on LPS-coated surface
Type: biochemical, human
Conditions: 10 mM EDTA present in the dilution buffer; data not shown
Description: The protocol for the functional capacity of the AP was similar to the method for the CP assay, with the following modification: Lipopolysaccharide W S. typhimurium (10 ug/ml) (lot. 51974, DICO LABORAORIES, US) was coated in 1M NaCl and used as activating surface for AP activation. The serum samples were diluted in dilution buffer with 4 mM Mg^2+, 10 mM EGTA, and 0.05% Tween-20 and were incubated for 60 min at 37° C. The C3, properdin and C9 deposition was measured by adding 100 μl of mAbs.
The influence of PAS on complement activation via the AP was also analyzed. NHS and C2-deficient serum diluted in dilution buffer containing 4 mM Mg^2+ and 10 mM EGTA was incubated in microtiter-wells (PolySorp), coated with LPS as described above in the presence or absence of PAS and deposition of complement components (C3b/C3bi, properdin and C9) was detected.
Various concentrations of PAS were used in order to determine a dose-response curve for PAS. Experiments were performed as described above only with varying the amount of PAS added to the sample.

Q: Which “Deposition of C3, properdin and C9 (all three complement components)” value does the source give for O=C(O)CN(CCN(CC(=O)O)CC(=O)O)CC(=O)O [EDTA] here?
A: reduced to background levels
